In patent US20200405868A1, “GEL-FORMING POLYPEPTIDES” (priority 2018, published 2020):
Where no end group is shown, it is not given here. The star is where a group is joined. Palmitoyl = CCCCCCCCCCCCCCCC(=O)*

Experiment: Compound gel-forming ability in water (visual inspection, tube tapping assay, tilted tube assay);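 further: peptides mixed with de-ionized water at about 22-25 °C, judged after 20 min by eye plus tube tapping (10 taps, moves counted) and 90° tilt mobility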
Type: physicochemical
Conditions: for gel formation in aqueous solution, 6% / propensity to form gels, wild-type counterparts, 6% / propensity to form gels, chimeric or mutated polypeptides, 6%: 6% w/w; for gel formation in aqueous solution, 11% / propensity to form gels, wild-type counterparts, 11% / propensity to form gels, chimeric or mutated polypeptides, 11%: 11% w/w; for gel formation at 3% w/w: 3% w/w in water; for gel formation at 6% w/w: 6% w/w in water; for gel formation at 11% w/w: 11% w/w in water; for Physical property at 11% w/w: 11% w/w in aqueous solution, room temperature; for gel formation in aqueous solution, 20% / propensity to form gels, wild-type counterparts, 20% / propensity to form gels, chimeric or mutated polypeptides, 20%: 20% w/w; for gel formation at 20% w/w: 20% w/w in water; for gel formation at the selected concentration: selected concentration (i.e., at 30%, 20%, 11%, or 6% w/w)

Substance | gel formation in aqueous solution, 6% (Table 3) | gel formation in aqueous solution, 11% (Table 3) | gel formation at 11% w/w | gel formation in aqueous solution, 20% (Table 3) | propensity to form gels, chimeric or mutated polypeptides, 11% (Table 5) | other results
FKFEFKFE-miniPEG-RPKPQQFFGLM-NH2 [SEQ ID NO:284] | AS/IS (AS/IS for aqueous solution or insoluble) | AS/IS (AS/IS for aqueous solution or insoluble) |  |  |  | 
FTLSLDVPTNIMNLLFNIAKAKNLRAQAAANAHLMAQI-NH2 [SEQ ID NO:10, reference compound] |  | SS (SS for semisolid gel) | semisolid gel | SS (SS for semisolid gel) |  | gel formation at 3% w/w: liquid gel; gel formation at 6% w/w: semisolid gel; Physical property at 11% w/w (Table 1): SS (SS for semisolid gel); propensity to form gels, wild-type counterparts, 6% (Table 5): SS (An ability to form semisolid gel is represented by an SS); propensity to form gels, wild-type counterparts, 11% (Table 5): SS (An ability to form semisolid gel is represented by an SS)
GRKKRRQRRRPQ [SEQ ID NO:36, reference compound] |  | AS/IS (AS/IS for aqueous solution or insoluble) | cannot form gel | AS/IS (AS/IS for aqueous solution or insoluble) |  | gel formation at 20% w/w: cannot form gel; Physical property at 11% w/w (Table 1): AS/IS; propensity to form gels, wild-type counterparts, 11% (Table 5): AS/IS; propensity to form gels, wild-type counterparts, 20% (Table 5): AS/IS; gel formation at the selected concentration: only form aqueous solution or are insoluble
HAEGTFTSDVSSYLEGQAAK(YSHPSS-Pal)EFIAWLVRGRG [SEQ ID NO:269] |  | SS (SS for semisolid gel) |  | SS (SS for semisolid gel) | SS (An ability to form semisolid gel is represented by an SS) | propensity to form gels, chimeric or mutated polypeptides, 20% (Table 5): SS (An ability to form semisolid gel is represented by an SS)
HAEGTFTSDVSSYLEGQAAKEFIAWLVKGR-NH2 [SEQ ID NO:14, reference compound] | AS/IS (AS/IS for aqueous solution or insoluble) |  | liquid gel |  |  | propensity to form gels, wild-type counterparts, 6% (Table 5): AS/IS
HAEGTFTSDVSSYLEGQAAREFIAWLVK(YSHPSS-Pal)GRG [SEQ ID NO:270] |  | SS (SS for semisolid gel) |  | SS (SS for semisolid gel) | SS (An ability to form semisolid gel is represented by an SS) | propensity to form gels, chimeric or mutated polypeptides, 20% (Table 5): SS (An ability to form semisolid gel is represented by an SS)
HGDGSFSDEMNTILDNLAARDFINWLIQTKITD-OH [SEQ ID NO:12, reference compound] | AS/IS (AS/IS for aqueous solution or insoluble) |  | liquid gel |  |  | propensity to form gels, wild-type counterparts, 6% (Table 5): AS/IS
HSDAVFTDNYTRLRKQ-Nle-AVKKYLNSILN-(Pal-K)-SY-NH2 [SEQ ID NO:266] |  | SS (SS for semisolid gel) | semisolid gel |  | SS (An ability to form semisolid gel is represented by an SS) | 
HSDAVFTDNYTRLRKQMAVKKYLNSILN [SEQ ID NO:67, reference compound] |  | AS/IS (AS/IS for aqueous solution or insoluble) | does not form gel | AS/IS (AS/IS for aqueous solution or insoluble) |  | gel formation at 20% w/w: does not form gel; propensity to form gels, wild-type counterparts, 11% (Table 5): AS/IS; propensity to form gels, wild-type counterparts, 20% (Table 5): AS/IS
IEGPTLRQWLAARA [SEQ ID NO:9, reference compound] |  |  |  |  |  | Physical property at 11% w/w (Table 1): SS (SS for semisolid gel)
IVLSLDVPIGLLQILLEQARARAAREQATTNARILARVGHC-NH2 [SEQ ID NO:31, reference compound] |  | AS/IS (AS/IS for aqueous solution or insoluble) | does not form gel | AS/IS (AS/IS for aqueous solution or insoluble) |  | gel formation at 20% w/w: does not form gel; Physical property at 11% w/w (Table 1): AS/IS; propensity to form gels, wild-type counterparts, 11% (Table 5): AS/IS; propensity to form gels, wild-type counterparts, 20% (Table 5): AS/IS; gel formation at the selected concentration: only form aqueous solution or are insoluble
KRPPGFS-(Dβal)-Ile-NH2 [SEQ ID NO:65, reference compound] | AS/IS (AS/IS for aqueous solution or insoluble) | AS/IS (AS/IS for aqueous solution or insoluble) | does not form a gel |  |  | gel formation at 6% w/w: does not form a gel; propensity to form gels, wild-type counterparts, 6% (Table 5): AS/IS; propensity to form gels, wild-type counterparts, 11% (Table 5): AS/IS
KTTKS-NH2 [SEQ ID NO:43, reference compound] |  |  |  |  |  | Physical property at 11% w/w (Table 1): AS/IS
PFRSVQ-NH2 [SEQ ID NO:37, reference compound] |  | AS/IS (AS/IS for aqueous solution or insoluble) | does not form gel |  |  | Physical property at 11% w/w (Table 1): AS/IS; propensity to form gels, wild-type counterparts, 11% (Table 5): AS/IS
PGTCEICAYAACTGC [SEQ ID NO:40, reference compound] |  |  |  |  |  | Physical property at 11% w/w (Table 1): AS/IS
Pal-HSDAAVDTSSEITTKDLKEKKEVVEEAEN-NH2 [SEQ ID NO:267] | SS (SS for semisolid gel) | SS (SS for semisolid gel) | semisolid gel |  | SS (An ability to form semisolid gel is represented by an SS) | propensity to form gels, chimeric or mutated polypeptides, 6% (Table 5): SS (An ability to form semisolid gel is represented by an SS)
Pal-HSY-(D-Ala)-GF(D-Leu)-NH2 [SEQ ID NO:213] |  |  |  |  |  | gel formation at 3% w/w: semisolid gels; gel formation in aqueous solution, 3% (Table 3, 3% w/w): SS (SS for semisolid gel)
Pal-HSY-(D-Met)-FHLMD-NH2 [SEQ ID NO:211] |  | SS (SS for semisolid gel) | semisolid gel |  |  | gel formation at 6% w/w: semisolid or liquid gel
Pal-HSY-(D-Phe)-QWAVGHL-(4-Cl)Phe-NH2 [SEQ ID NO:255] |  | SS (SS for semisolid gel) |  |  | SS (An ability to form semisolid gel is represented by an SS) | propensity to form gels, chimeric or mutated polypeptides, 3% (Table 5, 3% w/w): AS/IS
Pal-HSY-NH2 [SEQ ID NO:120] |  |  |  |  |  | Physical property at 11% w/w (Table 2): SS (SS for semisolid gel)
Pal-HSY-Nle-cyclo[Asp-His-D-Phe-Arg-Trp-Lys]-NH2 [SEQ ID NO:257] |  | SS (SS for semisolid gel) |  | SS (SS for semisolid gel) | SS (An ability to form semisolid gel is represented by an SS) | propensity to form gels, chimeric or mutated polypeptides, 20% (Table 5): SS (An ability to form semisolid gel is represented by an SS)
Pal-HSYAAVDTSSEITTKDLKEKKEVVEEAEN-NH2 [SEQ ID NO:240] | AS/IS (AS/IS for aqueous solution or insoluble) | SS (SS for semisolid gel) | semisolid gel |  | SS (An ability to form semisolid gel is represented by an SS) | propensity to form gels, chimeric or mutated polypeptides, 6% (Table 5): AS/IS
Pal-HSYADAIFTNSYRKVLGQLSARKLLQDIMSR-NH2 (Palmitoyl-HSYADAIFTNSYRKVLGQLSARKLLQDIMSR-NH2; SMILES CCCCCCCCCCCCCCCC(=O)N[C@@H](Cc1c[nH]cn1)C(=O)N[C@@H](CO)C(=O)N[C@@H](Cc1ccc(O)cc1)C(=O)N[C@@H](C)C(=O)N[C@@H](CC(=O)O)C(=O)N[C@@H](C)C(=O)N[C@H](C(=O)N[C@@H](Cc1ccccc1)C(=O)N[C@H](C(=O)N[C@@H](CC(N)=O)C(=O)N[C@@H](CO)C(=O)N[C@@H](Cc1ccc(O)cc1)C(=O)N[C@@H](CCCNC(=N)N)C(=O)N[C@@H](CCCCN)C(=O)N[C@H](C(=O)N[C@@H](CC(C)C)C(=O)NCC(=O)N[C@@H](CCC(N)=O)C(=O)N[C@@H](CC(C)C)C(=O)N[C@@H](CO)C(=O)N[C@@H](C)C(=O)N[C@@H](CCCNC(=N)N)C(=O)N[C@@H](CCCCN)C(=O)N[C@@H](CC(C)C)C(=O)N[C@@H](CC(C)C)C(=O)N[C@@H](CCC(N)=O)C(=O)N[C@@H](CC(=O)O)C(=O)N[C@H](C(=O)N[C@@H](CCSC)C(=O)N[C@@H](CO)C(=O)N[C@@H](CCCNC(=N)N)C(N)=O)[C@@H](C)CC)C(C)C)[C@@H](C)O)[C@@H](C)CC) [SEQ ID NO:237] | AS/IS (AS/IS for aqueous solution or insoluble) | AS/IS (AS/IS for aqueous solution or insoluble) |  | SS (SS for semisolid gel) | AS/IS | gel formation at 20% w/w: semisolid gel; propensity to form gels, chimeric or mutated polypeptides, 6% (Table 5): AS/IS; propensity to form gels, chimeric or mutated polypeptides, 20% (Table 5): SS (An ability to form semisolid gel is represented by an SS)
Pal-HSYEEMQRR-NH2 [SEQ ID NO:250] | AS/IS (AS/IS for aqueous solution or insoluble) | SS (SS for semisolid gel) | semisolid gel |  | SS (An ability to form semisolid gel is represented by an SS) | propensity to form gels, chimeric or mutated polypeptides, 6% (Table 5): AS/IS
Pal-HSYFFGLM-NH2 [SEQ ID NO:253] | AS/IS (AS/IS for aqueous solution or insoluble) | SS (SS for semisolid gel) |  |  | SS (An ability to form semisolid gel is represented by an SS) | propensity to form gels, chimeric or mutated polypeptides, 6% (Table 5): AS/IS
